We go through 4 molecules from PMC7979765, “trans-Translation inhibitors bind to a novel site on the ribosome and clear Neisseria gonorrhoeae in vivo” (Nature Communications, 2021).

Converted amounts (≈) assume the structure as drawn. “And” between values parts separate entries of the source, which are not always exact repeats. Equal entries are not always repeated.

The nature of data set [1]: Aqueous solubility (nephelometric). The data set is classed as physicochemical. The following applies: for Solubility: single replicates.
The test system of data set [2] is HeLa cells. Put plainly: Mammalian cell cytotoxicity (CC50). The class given is cell-based, human. The following applies: one value per replicate.
The nature of data set [3]: Liver microsome stability, murine. The class given is in vitro ADME, mouse. Conditions: murine liver microsomes; for Average MLMS t½: average of replicates; for MLMS t½: individual replicates. The method, then: To examine potential for first-pass metabolism of analogs in the liver, the stability of analogs in the presence of liver microsome preparations (Eurofins Discovery for human, dog and rat; Xenotech for mouse) was measured using the method of Kuhnz, et al.[50]. for murine studies and Oback for the dog, human and rat studies. The amount of parent compound remaining after incubation with microsomes in the presence of NADPH over a 30 min time range was measured using a reverse-phase liquid chromatography/mass spectroscopy method that was customized for each compound. Half-lives were calculated using linear regression analysis of several time points.

Data set [4] deals with Escherichia coli. Kind of data set: microbe, parasite or virus in culture. The data set is classed as cell-based. Conditions: E. coli KLE701 (ΔtolC::tet); source data, individual replicates.
Data set [5] has as its system HeLa cells. Kind of data set: Mammalian cell cytotoxicity (CC50). Conditions: HeLa, replicates. The class given is cell-based, human. The method, then:
The half maximal cytotoxic concentration (CC50) of each compound against HeLa cells (ATCC CCL-2) was measured as previously described. […] The mean values for each biological replicate were averaged, and the CC50 was determined using a 4-parameter nonlinear curve fitting algorithm (GraphPad Prism). The average of the CC50s from two biological replicates was calculated and reported.

Data set [6] concerns Neisseria gonorrhoeae. Put plainly: MIC, microbroth dilution, G77L medium. The data set is classed as cell-based. Conditions: Neisseria gonorrhoeae ATCC 49226; source data, individual replicates. For orientation: Dilution methods test growth across graded concentrations, often in twofold steps.
Data set [7] concerns trans-translation. Put plainly: microbe, parasite or virus in culture. The data set is classed as cell-based, Escherichia coli. The following applies: Eco Luc reporter, one value per replicate; read-out: IC50. As for the experimental part:
To verify that MBX-4132 retains activity as an inhibitor of trans-translation, we measured its dose-dependent activity against the non-stop luciferase reporter assay strain E. coli SB75 ΔtolC::kan (pluc-trpAt) essentially as described, with modifications. Briefly, serial 1.5-fold dilutions of MBX-4132 in DMSO were transferred to 96-well assay plates (Costar 3195), followed by the addition of 50 µl of an overnight culture of SB75 ΔtolC::kan (pluc-trpAt) that had been diluted to a final OD600 of 0.4 with LB media supplemented with 100 µg ampicillin/ml and 1 mM IPTG. […] The assay plates were incubated at room temperature for 2 h, and 50 µl of BrightGlo (Promega) bioluminescence reagent was added to each well. After 10 min incubation, bioluminescence intensity was measured using an Envision multi-label plate reader (Perkin Elmer). Each assay comprised three technical replicates, and the experiment was repeated three times. The fold induction for each MBX-4132 treated sample as compared to the DMSO-only sample was calculated for each technical replicate, and the average and standard deviation of the three technical was calculated. The IC50 was determined using a 4-parameter nonlinear curve fitting algorithm (GraphPad Prism).

`O=C(Nc1nnc(-c2ccccc2)o1)c1ccc(Cl)cc1` [MBX-3910]: the “Average solubility” value in data set [1] stood at 12.5 µM. In data set [1], this molecule came in with a Solubility of 12.5 µM (≈ 3.75 µg/mL). Moreover, in data set [2], the CC50 is 42.1 µM and 40.9 µM and > 100 µM and 36.7 µM and 35.8 µM and 41 µM. In addition, in data set [3], the “Average MLMS t½” value came out at 5 min. For the same molecule, the “MLMS t½” value in data set [3] is listed as 5 min. Besides, the MIC in data set [4] is 0.9366 µg/mL (≈ 3.12 µM); in data set [6], 0.2341 µg/mL and 0.1172 µg/mL. Further, the “NORMALIZED DATA (Fraction DMSO Control)” value in data set [5] ([CMPD] 0.78125 µM) was 1.08 Fraction DMSO Control and 1.097 Fraction DMSO Control and 1.14 Fraction DMSO Control and 1.04 Fraction DMSO Control and 1.054 Fraction DMSO Control and 1.05 Fraction DMSO Control; in data set [5] ([CMPD] 1.5625 µM) it was 1.101 Fraction DMSO Control and 1.0991 Fraction DMSO Control and 1.152 Fraction DMSO Control and 1.073 Fraction DMSO Control and 1.065 Fraction DMSO Control and 1.0674 Fraction DMSO Control; in data set [5] ([CMPD] 3.125 µM), 1.088 Fraction DMSO Control and 1.064 Fraction DMSO Control and 1.13 Fraction DMSO Control and 1.029 Fraction DMSO Control and 1.037 Fraction DMSO Control and 1.067 Fraction DMSO Control; in data set [5] ([CMPD] 6.25 µM) it was 1.079 Fraction DMSO Control (2×) and 1.139 Fraction DMSO Control and 1.051 Fraction DMSO Control and 1.03 Fraction DMSO Control and 1.024 Fraction DMSO Control; in data set [5] ([CMPD] 12.5 µM) it was 1.036 Fraction DMSO Control and 1.056 Fraction DMSO Control and 1.0972 Fraction DMSO Control and 1.011 Fraction DMSO Control and 0.9941 Fraction DMSO Control and 0.9999 Fraction DMSO Control; in data set [5] ([CMPD] 25 µM), 0.7722 Fraction DMSO Control and 0.7686 Fraction DMSO Control and 0.9894 Fraction DMSO Control and 0.8554 Fraction DMSO Control and 0.8395 Fraction DMSO Control and 0.8785 Fraction DMSO Control. Also, the “NORMALIZED DATA (Fraction DMSO Control)” value in data set [5] ([CMPD] 50 µM) was 0.4225 Fraction DMSO Control and 0.4189 Fraction DMSO Control and 0.8248 Fraction DMSO Control and 0.6289 Fraction DMSO Control and 0.6212 Fraction DMSO Control and 0.6018 Fraction DMSO Control; in data set [5] ([CMPD] 100 µM), 0.1921 Fraction DMSO Control and 0.2466 Fraction DMSO Control and 0.6012 Fraction DMSO Control and 0.4687 Fraction DMSO Control and 0.4717 Fraction DMSO Control and 0.4092 Fraction DMSO Control.
On to `O=C(Nc1nnco1)c1ccc(Cl)cc1` [MBX-4367], for which the half-maximal inhibitory concentration (IC50) in data set [7] was at least 25 µM. In data set [2], this molecule returned a CC50 of at least 100 µM. Besides, in data set [3], the “Average MLMS t½” value was below 5 min. Also, the “MLMS t½” value in data set [3] is reported as below 5 min. The MIC was 22.362 µg/ml and >=22.362 µg/ml in data set [4]; 11.181 µg/mL (≈ 50 µM) in data set [6]. Besides, the “NORMALIZED DATA (Fraction DMSO Control)” value was 1.189 Fraction DMSO Control and 0.9321 Fraction DMSO Control and 1.018 Fraction DMSO Control in data set [5] ([CMPD] 0.78125 µM); 1.137 Fraction DMSO Control and 0.9966 Fraction DMSO Control and 1.019 Fraction DMSO Control in data set [5] ([CMPD] 1.5625 µM); 1.148 Fraction DMSO Control and 1.015 Fraction DMSO Control and 1.071 Fraction DMSO Control in data set [5] ([CMPD] 3.125 µM); 1.124 Fraction DMSO Control and 0.9955 Fraction DMSO Control and 1.053 Fraction DMSO Control in data set [5] ([CMPD] 6.25 µM); 1.13 Fraction DMSO Control and 1.055 Fraction DMSO Control and 1.044 Fraction DMSO Control in data set [5] ([CMPD] 12.5 µM); 1.072 Fraction DMSO Control and 0.9837 Fraction DMSO Control and 1.014 Fraction DMSO Control in data set [5] ([CMPD] 25 µM). Besides, the “NORMALIZED DATA (Fraction DMSO Control)” value in data set [5] ([CMPD] 50 µM) was 1.146 Fraction DMSO Control and 0.9608 Fraction DMSO Control and 0.9961 Fraction DMSO Control; in data set [5] ([CMPD] 100 µM), 0.9043 Fraction DMSO Control and 0.7595 Fraction DMSO Control and 0.7474 Fraction DMSO Control.
Molecule `O=C(Nc1nnc(-c2ccc(F)cc2)o1)c1ccccc1` [MBXC-4227] gave a CC50 in data set [2] of at least 100 µM. The “NORMALIZED DATA (Fraction DMSO Control)” value in data set [5] ([CMPD] 0.78125 µM) was 0.9526 Fraction DMSO Control and 0.9482 Fraction DMSO Control and 0.9778 Fraction DMSO Control and 0.9357 Fraction DMSO Control and 0.9509 Fraction DMSO Control and 0.9608 Fraction DMSO Control; in data set [5] ([CMPD] 1.5625 µM) it was 0.9867 Fraction DMSO Control and 1.034 Fraction DMSO Control and 1.028 Fraction DMSO Control and 0.9667 Fraction DMSO Control and 0.9674 Fraction DMSO Control and 0.99 Fraction DMSO Control; in data set [5] ([CMPD] 3.125 µM), 1.005 Fraction DMSO Control and 1.004 Fraction DMSO Control and 0.9736 Fraction DMSO Control and 0.9997 Fraction DMSO Control and 1.016 Fraction DMSO Control and 1.006 Fraction DMSO Control; in data set [5] ([CMPD] 6.25 µM) it was 0.9644 Fraction DMSO Control and 0.9925 Fraction DMSO Control and 0.9938 Fraction DMSO Control and 0.9804 Fraction DMSO Control and 0.9921 Fraction DMSO Control and 0.9636 Fraction DMSO Control; in data set [5] ([CMPD] 12.5 µM) it was 0.8938 Fraction DMSO Control and 0.856 Fraction DMSO Control and 0.8425 Fraction DMSO Control and 0.8596 Fraction DMSO Control and 0.8611 Fraction DMSO Control and 0.8593 Fraction DMSO Control; in data set [5] ([CMPD] 25 µM) it was 0.9039 Fraction DMSO Control and 0.9304 Fraction DMSO Control and 0.9129 Fraction DMSO Control and 0.9236 Fraction DMSO Control and 0.9122 Fraction DMSO Control and 0.9801 Fraction DMSO Control. In addition, the “NORMALIZED DATA (Fraction DMSO Control)” value is 0.7944 Fraction DMSO Control and 0.8334 Fraction DMSO Control and 0.7734 Fraction DMSO Control and 0.7887 Fraction DMSO Control and 0.7582 Fraction DMSO Control and 0.8061 Fraction DMSO Control in data set [5] ([CMPD] 50 µM); 0.6978 Fraction DMSO Control and 0.688 Fraction DMSO Control and 0.6756 Fraction DMSO Control and 0.7089 Fraction DMSO Control and 0.7199 Fraction DMSO Control and 0.7396 Fraction DMSO Control in data set [5] ([CMPD] 100 µM).
For `CN(C(=O)c1ccc(Cl)cc1)c1nnc(-c2ccc(F)cc2)o1` [MBX-4076], the “Average solubility” value in data set [1] is given as below 3.1 µM. For the same molecule, the Solubility in data set [1] was 3.1 µM and <3.1 µM (2×). The molecule also had a 50% cytotoxic concentration (CC50) in data set [2] of at least 100 µM. Also, the MIC was 8.293 µg/mL and 4.147 µg/mL and 2.073 µg/mL in data set [4]; 2.073 µg/mL (≈ 6.25 µM) in data set [6]. The “[…] (Fraction DMSO Control)” value in data set [5] ([CMPD] 0.78125 µM) is 1.197 Fraction DMSO Control and 0.943 Fraction DMSO Control and 1.027 Fraction DMSO Control; in data set [5] ([CMPD] 1.5625 µM) it was 1.13 Fraction DMSO Control and 0.9796 Fraction DMSO Control and 1.003 Fraction DMSO Control; in data set [5] ([CMPD] 3.125 µM) it was 1.12 Fraction DMSO Control and 0.9889 Fraction DMSO Control and 1.051 Fraction DMSO Control; in data set [5] ([CMPD] 6.25 µM), 1.086 Fraction DMSO Control and 0.9295 Fraction DMSO Control and 1.003 Fraction DMSO Control; in data set [5] ([CMPD] 12.5 µM), 1.084 Fraction DMSO Control and 0.9742 Fraction DMSO Control and 1.016 Fraction DMSO Control; in data set [5] ([CMPD] 25 µM), 1.061 Fraction DMSO Control and 0.9434 Fraction DMSO Control and 0.9966 Fraction DMSO Control. Also, the “[…] (Fraction DMSO Control)” value is 1.042 Fraction DMSO Control and 0.8579 Fraction DMSO Control and 0.8811 Fraction DMSO Control in data set [5] ([CMPD] 50 µM); 0.7388 Fraction DMSO Control and 0.6179 Fraction DMSO Control and 0.6661 Fraction DMSO Control in data set [5] ([CMPD] 100 µM).

In general, Solubility refers to the concentration that dissolves in the medium under given conditions. The low end stands for little dissolved substance, the high end for much dissolved substance. The CC50 is the concentration that lowers cell viability or growth by half. Higher therefore signals lower toxicity to the cells. As a reminder, the IC50 is the concentration needed to halve the response being measured.
